# Where two headings read alike, the source gives them in different places.
# Key:
# [1] = system: Haemophilus influenza (5 strains); experiment: MIC range, broader panel of Quotient Bioresearch strains (Table 4); type: cell-based, Haemophilus influenzae
# [2] = biological target: bacterial topoisomerase IV (Escherichia coli, UniProt P0AFI2+P20083); experiment: Inhibition of topoisomerases activity in vitro, Topogen protocol TG1007 (Table 7); type: biochemical
# bacterial topoisomerase IV, sequence (P20083 whole entry): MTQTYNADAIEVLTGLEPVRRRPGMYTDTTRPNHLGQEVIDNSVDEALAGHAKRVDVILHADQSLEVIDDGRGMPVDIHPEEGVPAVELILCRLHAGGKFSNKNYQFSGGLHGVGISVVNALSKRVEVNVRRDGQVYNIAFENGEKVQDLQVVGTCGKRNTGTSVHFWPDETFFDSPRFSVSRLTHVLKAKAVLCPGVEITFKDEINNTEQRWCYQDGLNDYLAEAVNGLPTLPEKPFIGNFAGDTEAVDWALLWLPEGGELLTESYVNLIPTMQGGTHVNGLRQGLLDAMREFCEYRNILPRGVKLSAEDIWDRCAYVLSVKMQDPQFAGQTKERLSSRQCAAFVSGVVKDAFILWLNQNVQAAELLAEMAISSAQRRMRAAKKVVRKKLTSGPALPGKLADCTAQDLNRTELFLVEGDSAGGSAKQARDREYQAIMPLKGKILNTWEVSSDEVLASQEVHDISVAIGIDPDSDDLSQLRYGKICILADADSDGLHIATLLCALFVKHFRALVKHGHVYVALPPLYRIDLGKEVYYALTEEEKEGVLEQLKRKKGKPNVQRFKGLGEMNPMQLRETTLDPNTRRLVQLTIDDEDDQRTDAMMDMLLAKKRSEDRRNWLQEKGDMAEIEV
# bacterial topoisomerase IV, sequence (P0AFI2 whole entry): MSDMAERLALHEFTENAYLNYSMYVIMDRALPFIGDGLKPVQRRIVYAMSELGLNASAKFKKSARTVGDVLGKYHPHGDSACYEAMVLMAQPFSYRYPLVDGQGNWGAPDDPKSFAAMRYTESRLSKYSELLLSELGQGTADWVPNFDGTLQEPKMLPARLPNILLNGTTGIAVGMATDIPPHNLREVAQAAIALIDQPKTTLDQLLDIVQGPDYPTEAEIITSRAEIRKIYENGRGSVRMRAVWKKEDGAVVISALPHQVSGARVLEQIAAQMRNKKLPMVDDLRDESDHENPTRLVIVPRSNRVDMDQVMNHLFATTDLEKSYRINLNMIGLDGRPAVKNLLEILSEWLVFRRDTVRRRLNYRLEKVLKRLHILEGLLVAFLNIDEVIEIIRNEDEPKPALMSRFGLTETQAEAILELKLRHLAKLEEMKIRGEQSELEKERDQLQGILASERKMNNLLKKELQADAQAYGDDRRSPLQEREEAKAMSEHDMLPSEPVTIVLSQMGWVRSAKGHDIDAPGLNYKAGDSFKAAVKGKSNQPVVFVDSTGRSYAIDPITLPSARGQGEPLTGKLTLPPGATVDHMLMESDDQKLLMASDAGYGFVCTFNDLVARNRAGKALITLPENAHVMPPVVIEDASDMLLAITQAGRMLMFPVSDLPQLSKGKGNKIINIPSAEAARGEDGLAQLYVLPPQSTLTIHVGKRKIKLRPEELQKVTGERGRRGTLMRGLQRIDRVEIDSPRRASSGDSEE
smiles,measurement,setting,value
"Cc1c(-c2ccc3[nH]ncc3c2)ccn2c(=O)c(C(=O)[O-])cc(C3CC3)c12.[K+] [Example 23 K salt, potassium 1-cyclopropyl-8-(1H-indazol-5-yl)-9-methyl-4-oxo-4H-quinolizine-3-carboxylate]",MIC50,"[1]; 16 h, Median of the strain panel",≤ 0.015 µg/mL
same,MIC,"[1]; High of the strain panel, read-out: MIC Range High, Haemophilus influenza (5 strains)",≤ 0.015 µg/mL
same,MIC,"[1]; Low of the strain panel, read-out: MIC Range Low, Haemophilus influenza (5 strains)",≤ 0.015 µg/mL
same,IC50,[2],4.34 µM

# — patent publication US8962842B2, “2-pyridone antimicrobial compositions” (priority 2010, dated 2015)
